Results taken from ChEMBL document CHEMBL1141631, “Novel ketooxazole based inhibitors of fatty acid amide hydrolase (FAAH)” (Bioorg Med Chem Lett, 2008).
Values after ≈ are worked out from the molar mass of the structure shown. Active and inactive are the calls of the source. No cut-off for these calls is given here.

Legend:
[1] = target: T1, Fatty-acid amide hydrolase 1 (Homo sapiens, UniProt O00519); experiment: Inhibition of human FAAH
T1 sequence (O00519 whole entry): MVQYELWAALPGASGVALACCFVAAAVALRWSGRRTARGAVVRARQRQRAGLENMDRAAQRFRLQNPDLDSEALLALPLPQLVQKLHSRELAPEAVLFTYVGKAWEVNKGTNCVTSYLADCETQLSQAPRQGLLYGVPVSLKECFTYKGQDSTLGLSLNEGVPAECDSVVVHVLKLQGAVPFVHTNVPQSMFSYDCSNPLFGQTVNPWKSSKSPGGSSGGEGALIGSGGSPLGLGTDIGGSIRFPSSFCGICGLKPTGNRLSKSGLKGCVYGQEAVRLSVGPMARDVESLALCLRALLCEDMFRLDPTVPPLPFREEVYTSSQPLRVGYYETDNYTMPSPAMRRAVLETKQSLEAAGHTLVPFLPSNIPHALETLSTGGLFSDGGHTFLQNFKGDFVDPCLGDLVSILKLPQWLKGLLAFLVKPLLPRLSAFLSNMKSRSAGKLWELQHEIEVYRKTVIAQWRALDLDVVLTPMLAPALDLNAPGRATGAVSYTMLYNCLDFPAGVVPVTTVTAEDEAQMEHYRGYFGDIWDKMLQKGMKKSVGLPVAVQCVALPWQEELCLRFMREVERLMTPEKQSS

[2] = Aqueous solubility in water; type: physicochemical
Rattus norvegicus [3] = organism: Rattus norvegicus; experiment: Toxicity in spinal nerve ligated rat model assessed as motor impairment by rotarod test; type: organism-based; details: in vivo
[4] = Plasma concentration in spinal nerve ligated rat model at 4 mg/kg, iv followed by infusion of 6 mg/kg/hr after 6 hrs; type: ADME, organism-based
Rattus norvegicus [5] = experiment: Reversal of tactile allodynia in spinal nerve ligated rat model at 4 mg/kg, iv followed by infusion of 6 mg/kg/hr after 6 hrs; type: functional, organism-based
Rattus norvegicus [6] = organism: Rattus norvegicus; experiment: Reversal of tactile allodynia in spinal nerve ligated rat model; type: functional

| IC50 [1] | SMILES | other results |
| --- | --- | --- |
| 22 nM | O=C(CCCC1CCN(C(=O)CCc2ccccc2)CC1)c1ncco1 | – |
| 2.5 nM | O=C(CCCC1CCN(S(=O)(=O)c2ccccc2)CC1)c1ncco1 | – |
| 77 nM | O=C(CCCC1CCN(C(=O)c2ccccc2)CC1)c1ncco1 | – |
| 4 nM | O=C(CCCC1CCN(C(=O)OCc2ccccc2)CC1)c1ncco1 | – |
| 2 nM | CC(C)(C)OC(=O)N1CCC(CCCC(=O)c2ncco2)CC1 | – |

The remaining lines, values behind:

| SMILES | IC50 [1] | other results |
| --- | --- | --- |
| O=C(CCCC1CCN(C(=O)CCC2CCCCC2)CC1)c1ncco1 | 3 nM | – |
| O=C(CCCCCCc1ccccc1)c1ncc(-c2ccccn2)o1 | – | solubility [2]: 16 µg/mL (≈ 47.8 µM) |
| O=C(CCCC1CCNCC1)c1ncco1 | 5700 nM | – |
| CC(C)S(=O)(=O)N1CCC(CCCC(=O)c2ncco2)CC1 | 140 nM | – |
| O=C(CCCCCCc1ccccc1)c1ncco1 | 43 nM | – |
| CC(C)c1ccc(CN2CCC(CCCC(=O)c3ncco3)CC2)cc1 | 3.6 nM | Activity (Rattus norvegicus [3]): Non-toxic; solubility [2]: > 400 µg/mL; concentration at 6 h [4]: 1200 nM; Activity (Rattus norvegicus [5]): Active; ED50 (Rattus norvegicus [6]): 7.3 mg/kg |
| COc1cccc(CN2CCC(CCCC(=O)c3ncco3)CC2)c1 | 34 nM | – |
| COc1ccc(CN2CCC(CCCC(=O)c3ncco3)CC2)cc1 | 130 nM | – |
